Reference: ChEMBL document CHEMBL4043136, “Chiral-pool synthesis of 1,2,4-trisubstituted 1,4-diazepanes as novel σ1 receptor ligands” (Bioorg Med Chem, 2017)
pIC50, pKi: −log10 of the molar value. Active and inactive are the calls of the source. The rule behind the calls is not given here.

Tests used:
[1] = molecular target: Sigma non-opioid intracellular receptor 1 (Cavia porcellus) (UniProt Q60492); assay: Agonist activity at sigma1 receptor assessed as potentiation of electrically stimulated contractions of the guinea pig vas deferens relative to (S)-3-PPP
[2] = molecular target: Sigma non-opioid intracellular receptor 1 (Cavia porcellus) (UniProt Q60492); assay: Agonist activity at sigma1 receptor assessed as potentiation of electrically stimulated contractions of the guinea pig vas deferens at 30 uM relative to (S)-3-PPP
[3] = molecular target: Alpha-2A adrenergic receptor (Homo sapiens) (UniProt P08913); assay: Displacement of [3H]-MK-912 from adrenergic alpha2A receptor (unknown origin) at 1 uM
Homo sapiens [4] = species on record: Homo sapiens; assay: Displacement of [3H]-muscimol from […] GABAA receptor (unknown origin) at 1 uM
[5] = molecular target: 5-hydroxytryptamine receptor 3A (Homo sapiens) (UniProt P46098); assay: Displacement of [3H]-GR-65630 from 5-HT3 receptor (unknown origin) at 1 uM
[6] = molecular target: Alpha-1D adrenergic receptor (Homo sapiens) (UniProt P25100); assay: Displacement of [3H]-prazosin from adrenergic alpha1D receptor (unknown origin) at 1 uM
CYP3A4 = CYP3A4 (Homo sapiens, UniProt P08684); assay: Inhibition on CYP3A4 (unknown origin) at 1 uM; assay type: ADME
Homo sapiens [7] = species on record: Homo sapiens; assay: Displacement of [3H]-alpha-5-methylene-ATP from purinergic P2x receptor (unknown origin) at 1 uM
[8] = molecular target: Beta-2 adrenergic receptor (Homo sapiens) (UniProt P07550); assay: Displacement of [3H]-CGP-12177 from adrenergic beta2 receptor (unknown origin) at 1 uM
[9] = molecular target: Histamine H1 receptor (Homo sapiens) (UniProt P35367); assay: Displacement of [3H]-Pyrilamine from histamine H1 receptor (unknown origin) at 1 uM
[10] = molecular target: Muscarinic acetylcholine receptor M2 (Homo sapiens) (UniProt P08172); assay: Displacement of [3H]-N-methylscopolamine from muscarinic M2 receptor (unknown origin) at 1 uM
[11] = molecular target: Muscarinic acetylcholine receptor M3 (Homo sapiens) (UniProt P20309); assay: Displacement of [3H]-N-methylscopolamine from muscarinic M3 receptor (unknown origin) at 1 uM
[12] = molecular target: Neuropeptide Y receptor type 1 (Homo sapiens) (UniProt P25929); assay: Displacement of [125I]-Peptide YY from neuropeptide Y Y1 receptor (unknown origin) at 1 uM
Homo sapiens [13] = species on record: Homo sapiens; assay: Displacement of [35S]-ATP-alpha-S from purinergic P2y receptor (unknown origin) at 1 uM
[14] = molecular target: Neuromedin-B receptor (Homo sapiens) (UniProt P28336); assay: Displacement of [125I]-(Tyr4)-bombesin from bombesin BB1 receptor (unknown origin) at 1 uM
[15] = molecular target: Alpha-1B adrenergic receptor (Homo sapiens) (UniProt P35368); assay: Displacement of [3H]-prazosin from adrenergic alpha1B receptor (unknown origin) at 1 uM
[16] = molecular target: 5-hydroxytryptamine receptor 1A (Homo sapiens) (UniProt P08908); assay: Displacement of [3H]-8-OH-DPAT from 5-HT1A receptor (unknown origin) at 1 uM
Homo sapiens [17] = species on record: Homo sapiens; assay: Displacement of [3H]-sp iperone from dopamine D4.2 receptor (unknown origin) at 1 uM
[18] = molecular target: Alpha-1A adrenergic receptor (Homo sapiens) (UniProt P35348); assay: Displacement of [3H]-prazosin from adrenergic alpha1A receptor (unknown origin) at 1 uM
[19] = molecular target: Muscarinic acetylcholine receptor M1 (Homo sapiens) (UniProt P11229); assay: Displacement of [3H]-N-methylscopolamine from muscarinic M1 receptor (unknown origin) at 1 uM
[20] = molecular target: Gastrin-releasing peptide receptor (Homo sapiens) (UniProt P30550); assay: Displacement of [125I]-(Tyr4)-bombesin from bombesin BB2 receptor (unknown origin) at 1 uM
[21] = molecular target: Delta-type opioid receptor (Homo sapiens) (UniProt P41143); assay: Displacement of [3H]-naltrindole from delta opioid receptor (unknown origin) at 1 uM
[22] = molecular target: Neuropeptide Y receptor type 2 (Homo sapiens) (UniProt P49146); assay: Displacement of [125I]-Peptide YY from neuropeptide Y Y2 receptor (unknown origin) at 1 uM
[23] = molecular target: D(2) dopamine receptor (Homo sapiens) (UniProt P14416); assay: Displacement of [3H]-sp iperone from dopamine D2 receptor (unknown origin) at 1 uM
Homo sapiens [24] = species on record: Homo sapiens; assay: Displacement of [125I]-epibatidine from nicotinic acetylcholine receptor (unknown origin) at 1 uM
[25] = molecular target: Substance-P receptor (Homo sapiens) (UniProt P25103); assay: Displacement of [3H]-SR-140333 from tachykinin NK1 receptor (unknown origin) at 1 uM
[26] = molecular target: Sigma non-opioid intracellular receptor 1 (Cavia porcellus, UniProt Q60492); assay: Displacement of [3H]-pentazocine from sigma1 receptor in guinea pig brain membranes after 120 mins by liquid scintillation counting; assay type: cell membranes, Membrane
[27] = molecular target: Kappa-type opioid receptor (Homo sapiens) (UniProt P41145); assay: Displacement of [3H]-d iprenorphine from kappa opioid receptor (unknown origin) at 1 uM
[28] = Displacement of [3H]-(+)-MK 801 from PCP binding site of NMDA receptor in pig brain cortex membranes after 120 mins by liquid scintillation spectrometry; assay type: cell membranes, Sus scrofa
Homo sapiens [29] = species on record: Homo sapiens; assay: Displacement of [3H]-flunitrazepam from […] GABAA receptor (unknown origin) at 1 uM
CYP2C19 = CYP2C19 (Homo sapiens, UniProt P33261); assay: Inhibition on CYP2C19 (unknown origin) at 1 uM; assay type: ADME
[30] = molecular target: Adenosine receptor A3 (Homo sapiens) (UniProt P0DMS8); assay: Displacement of [125I]-AB-MECA from adenosine A3 receptor (unknown origin) at 1 uM
Mus musculus = assay: Toxicity in mouse assessed as increase in abdominal tone at 100 mg/kg, ip by Irwin test; assay type: organism-based; conditions: in vivo
[31] = molecular target: Endothelin receptor type B (Homo sapiens) (UniProt P24530); assay: Displacement of [125I]-endothelin-1 from endothelin ETB receptor (unknown origin) at 1 uM
[32] = Metabolic stability in rat microsomes assessed as amount of parent compound remaining after 5 mins; assay type: ADME, Microsome; conditions: read-out: Stability
[33] = molecular target: Melanocortin receptor 3 (Homo sapiens) (UniProt P41968); assay: Displacement of [125I]-NDP-alpha-MSH from melanocortin MC3 receptor (unknown origin) at 1 uM
Histamine H2 receptor [34] = molecular target: T1, Histamine H2 receptor (Homo sapiens, UniProt P25021); assay: Displacement of [125I]-aminopotentidine receptor from histamine H2 receptor (unknown origin)
[35] = molecular target: T2, Glutamate [NMDA] receptor (Homo sapiens) (UniProt Q05586+Q12879+Q13224+O15399+O60391+Q14957+Q8TCU5); assay: Displacement of [3H]-MDL-105519 from glutamate NMDA receptor glycine binding site (unknown origin) at 1 uM
Histamine H2 receptor [36] = molecular target: T1, Histamine H2 receptor; assay: Displacement of [125I]-aminopotentidine receptor from histamine H2 receptor (unknown origin) at 1 uM
[37] = molecular target: T2, Glutamate [NMDA] receptor (Homo sapiens); assay: Displacement of [3H]-TCP from glutamate NMDA receptor phencyclidine binding site (unknown origin) at 1 uM
Homo sapiens [38] = species on record: Homo sapiens; assay: Displacement of [3H]-Idazoxan from imidazoline I2 receptor (unknown origin) at 1 uM

T1 sequence (P25021 whole entry): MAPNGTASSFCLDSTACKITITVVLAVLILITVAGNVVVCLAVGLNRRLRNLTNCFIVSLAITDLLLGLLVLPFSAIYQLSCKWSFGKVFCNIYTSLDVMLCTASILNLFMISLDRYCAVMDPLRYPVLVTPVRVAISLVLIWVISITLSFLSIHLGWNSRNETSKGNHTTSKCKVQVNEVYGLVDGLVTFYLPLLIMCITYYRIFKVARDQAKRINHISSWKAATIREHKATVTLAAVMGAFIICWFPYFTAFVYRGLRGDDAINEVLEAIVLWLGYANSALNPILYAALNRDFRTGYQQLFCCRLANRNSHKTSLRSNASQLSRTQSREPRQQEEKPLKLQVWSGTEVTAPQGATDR
Sequence of Sigma non-opioid intracellular receptor 1 (Cavia porcellus) (Q60492 whole entry): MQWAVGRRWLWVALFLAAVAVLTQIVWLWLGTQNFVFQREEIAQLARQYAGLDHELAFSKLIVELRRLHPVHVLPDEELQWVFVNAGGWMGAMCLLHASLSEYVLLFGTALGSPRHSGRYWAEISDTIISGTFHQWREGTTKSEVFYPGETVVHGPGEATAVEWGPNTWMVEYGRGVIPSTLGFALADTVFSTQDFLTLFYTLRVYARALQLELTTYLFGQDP
Sequence of Histamine H1 receptor (Homo sapiens) (P35367 whole entry): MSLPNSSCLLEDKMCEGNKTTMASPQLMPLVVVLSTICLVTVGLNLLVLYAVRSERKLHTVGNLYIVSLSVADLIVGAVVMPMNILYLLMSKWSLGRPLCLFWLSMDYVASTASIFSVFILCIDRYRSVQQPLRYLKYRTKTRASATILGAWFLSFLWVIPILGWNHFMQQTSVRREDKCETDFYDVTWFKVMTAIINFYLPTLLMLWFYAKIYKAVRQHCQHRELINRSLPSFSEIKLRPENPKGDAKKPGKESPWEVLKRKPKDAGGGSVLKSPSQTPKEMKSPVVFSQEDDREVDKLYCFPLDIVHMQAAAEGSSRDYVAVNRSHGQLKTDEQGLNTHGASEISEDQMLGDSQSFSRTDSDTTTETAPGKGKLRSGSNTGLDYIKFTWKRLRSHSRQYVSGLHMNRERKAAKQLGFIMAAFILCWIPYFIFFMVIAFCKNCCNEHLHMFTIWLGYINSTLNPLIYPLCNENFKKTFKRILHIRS
Sequence of Melanocortin receptor 3 (Homo sapiens) (P41968 whole entry): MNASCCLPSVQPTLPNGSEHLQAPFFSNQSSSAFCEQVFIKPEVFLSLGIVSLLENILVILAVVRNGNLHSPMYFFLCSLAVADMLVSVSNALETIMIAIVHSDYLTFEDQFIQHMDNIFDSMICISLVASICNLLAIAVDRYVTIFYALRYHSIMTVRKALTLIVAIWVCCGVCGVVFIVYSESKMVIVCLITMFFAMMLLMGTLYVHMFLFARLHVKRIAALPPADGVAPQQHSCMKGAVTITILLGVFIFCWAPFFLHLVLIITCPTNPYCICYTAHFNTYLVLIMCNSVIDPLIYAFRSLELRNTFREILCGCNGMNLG
Sequence of Gastrin-releasing peptide receptor (Homo sapiens) (P30550 whole entry, looked up): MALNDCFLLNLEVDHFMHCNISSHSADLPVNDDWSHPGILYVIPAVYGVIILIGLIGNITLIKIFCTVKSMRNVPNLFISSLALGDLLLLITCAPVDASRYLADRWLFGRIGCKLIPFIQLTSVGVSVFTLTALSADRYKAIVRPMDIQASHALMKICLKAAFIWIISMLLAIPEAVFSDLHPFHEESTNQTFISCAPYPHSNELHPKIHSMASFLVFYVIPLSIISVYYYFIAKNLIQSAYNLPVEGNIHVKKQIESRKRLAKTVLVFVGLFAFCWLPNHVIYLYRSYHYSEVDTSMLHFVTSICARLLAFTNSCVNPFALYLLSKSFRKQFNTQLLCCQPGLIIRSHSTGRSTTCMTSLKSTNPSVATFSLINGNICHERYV
Sequence of Neuromedin-B receptor (Homo sapiens) (P28336 whole entry, looked up): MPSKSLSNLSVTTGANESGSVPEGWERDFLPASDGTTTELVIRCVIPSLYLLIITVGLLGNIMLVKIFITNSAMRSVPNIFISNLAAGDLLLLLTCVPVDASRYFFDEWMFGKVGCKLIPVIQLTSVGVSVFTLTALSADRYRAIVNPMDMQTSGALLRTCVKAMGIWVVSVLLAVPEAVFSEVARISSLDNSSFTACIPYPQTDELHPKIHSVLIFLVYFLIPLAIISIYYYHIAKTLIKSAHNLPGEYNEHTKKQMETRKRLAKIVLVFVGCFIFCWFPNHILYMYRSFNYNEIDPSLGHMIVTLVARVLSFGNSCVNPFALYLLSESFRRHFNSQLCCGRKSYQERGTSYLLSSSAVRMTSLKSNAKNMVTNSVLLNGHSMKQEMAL
Sequence of 5-hydroxytryptamine receptor 3A (Homo sapiens) (P46098 whole entry): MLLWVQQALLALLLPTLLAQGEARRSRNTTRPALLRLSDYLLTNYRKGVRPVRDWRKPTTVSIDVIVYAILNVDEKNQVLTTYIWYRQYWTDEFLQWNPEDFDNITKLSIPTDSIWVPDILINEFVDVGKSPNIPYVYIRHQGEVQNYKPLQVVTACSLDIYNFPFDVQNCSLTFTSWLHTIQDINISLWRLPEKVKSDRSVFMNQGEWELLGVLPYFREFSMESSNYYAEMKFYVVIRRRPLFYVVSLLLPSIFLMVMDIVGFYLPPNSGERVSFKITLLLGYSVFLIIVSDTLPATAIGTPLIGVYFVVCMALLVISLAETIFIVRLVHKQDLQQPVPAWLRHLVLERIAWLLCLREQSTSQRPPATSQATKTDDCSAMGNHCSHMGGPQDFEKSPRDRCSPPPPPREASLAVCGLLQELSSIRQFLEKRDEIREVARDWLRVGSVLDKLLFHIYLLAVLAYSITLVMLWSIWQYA
Sequence of Adenosine receptor A3 (Homo sapiens) (P0DMS8 whole entry, looked up): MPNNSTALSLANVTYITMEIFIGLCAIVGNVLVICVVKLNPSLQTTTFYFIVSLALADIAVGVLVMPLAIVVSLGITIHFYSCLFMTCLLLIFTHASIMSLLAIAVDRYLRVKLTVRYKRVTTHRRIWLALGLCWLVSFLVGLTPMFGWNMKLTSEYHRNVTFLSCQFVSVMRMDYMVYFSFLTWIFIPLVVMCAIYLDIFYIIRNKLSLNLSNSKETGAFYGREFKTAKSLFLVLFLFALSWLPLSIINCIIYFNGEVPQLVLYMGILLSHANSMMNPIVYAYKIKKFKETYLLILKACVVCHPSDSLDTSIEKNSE
Sequence of CYP2C19 (P33261 whole entry): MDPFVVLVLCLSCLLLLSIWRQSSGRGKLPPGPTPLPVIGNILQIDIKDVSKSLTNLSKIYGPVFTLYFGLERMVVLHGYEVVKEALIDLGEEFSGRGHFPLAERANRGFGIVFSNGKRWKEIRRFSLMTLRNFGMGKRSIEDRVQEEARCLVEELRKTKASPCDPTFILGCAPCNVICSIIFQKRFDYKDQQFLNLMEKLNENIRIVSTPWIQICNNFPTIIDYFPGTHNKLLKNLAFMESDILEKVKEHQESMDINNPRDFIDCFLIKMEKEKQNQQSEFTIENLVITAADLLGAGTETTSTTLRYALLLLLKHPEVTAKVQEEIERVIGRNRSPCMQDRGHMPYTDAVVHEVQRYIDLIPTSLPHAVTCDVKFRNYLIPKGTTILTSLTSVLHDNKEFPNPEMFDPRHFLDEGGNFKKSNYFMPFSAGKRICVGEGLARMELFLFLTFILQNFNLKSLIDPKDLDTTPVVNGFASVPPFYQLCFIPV
Sequence of Alpha-1D adrenergic receptor (Homo sapiens) (P25100 whole entry): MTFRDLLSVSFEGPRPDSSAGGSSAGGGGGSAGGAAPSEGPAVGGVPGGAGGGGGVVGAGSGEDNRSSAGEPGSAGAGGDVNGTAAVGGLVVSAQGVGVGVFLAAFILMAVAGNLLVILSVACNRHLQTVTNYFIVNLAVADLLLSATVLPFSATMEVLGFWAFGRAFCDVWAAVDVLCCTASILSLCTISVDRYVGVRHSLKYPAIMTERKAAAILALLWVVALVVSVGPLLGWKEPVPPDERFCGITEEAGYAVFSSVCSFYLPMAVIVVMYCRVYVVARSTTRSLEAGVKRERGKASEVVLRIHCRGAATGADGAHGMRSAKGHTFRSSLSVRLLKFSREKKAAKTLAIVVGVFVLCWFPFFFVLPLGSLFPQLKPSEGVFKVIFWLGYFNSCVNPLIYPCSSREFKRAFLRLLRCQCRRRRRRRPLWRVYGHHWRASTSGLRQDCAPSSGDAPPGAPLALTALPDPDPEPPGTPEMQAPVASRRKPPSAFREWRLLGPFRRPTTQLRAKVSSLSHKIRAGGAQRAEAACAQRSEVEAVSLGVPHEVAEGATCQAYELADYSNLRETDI
Sequence of Muscarinic acetylcholine receptor M3 (Homo sapiens) (P20309 whole entry, looked up): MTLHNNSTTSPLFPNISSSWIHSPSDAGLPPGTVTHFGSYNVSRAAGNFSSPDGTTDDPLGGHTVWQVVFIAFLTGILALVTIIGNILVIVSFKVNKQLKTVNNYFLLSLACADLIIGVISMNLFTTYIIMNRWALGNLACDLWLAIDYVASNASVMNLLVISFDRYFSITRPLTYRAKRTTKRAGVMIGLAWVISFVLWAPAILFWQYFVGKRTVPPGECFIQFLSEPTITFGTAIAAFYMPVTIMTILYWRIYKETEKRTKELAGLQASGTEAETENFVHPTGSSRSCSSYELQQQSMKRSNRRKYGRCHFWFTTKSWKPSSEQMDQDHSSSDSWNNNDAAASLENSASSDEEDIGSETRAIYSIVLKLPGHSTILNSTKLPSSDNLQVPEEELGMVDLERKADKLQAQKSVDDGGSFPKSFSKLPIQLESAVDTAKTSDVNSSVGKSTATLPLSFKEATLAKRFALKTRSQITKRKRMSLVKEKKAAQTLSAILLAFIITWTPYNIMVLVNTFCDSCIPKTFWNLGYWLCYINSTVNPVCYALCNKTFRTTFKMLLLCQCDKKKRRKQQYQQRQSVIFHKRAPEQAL
Sequence of Sigma non-opioid intracellular receptor 1 (Q60492 whole entry): as the sequence (Q60492 whole entry) above

## COc1ccc(CN2CCCN(Cc3ccccc3)[C@@H](C)C2)cc1
[1]
  Activity: Dose-dependent effect
[2]
  Activity: 29%
[3]
  inhibition: inactive
Homo sapiens [4]
  inhibition: inactive
[5]
  inhibition: inactive
[6]
  inhibition: inactive
CYP3A4
  inhibition at 1 µM: 7%
Homo sapiens [7]
  inhibition: inactive
[8]
  inhibition: inactive
[9]
  inhibition: inactive
[10]
  inhibition: inactive
[11]
  inhibition: inactive
[12]
  inhibition: inactive
Homo sapiens [13]
  inhibition: inactive
[14]
  inhibition: inactive
[15]
  inhibition: inactive
[16]
  inhibition: inactive
Homo sapiens [17]
  inhibition: inactive
[18]
  inhibition: inactive
[19]
  inhibition: inactive
[20]
  inhibition: inactive
[21]
  inhibition: inactive
[22]
  inhibition: inactive
[23]
  inhibition: inactive
Homo sapiens [24]
  inhibition: inactive
[25]
  inhibition: inactive
[26]
  pKi: 9.07
[27]
  inhibition: inactive
[28]
  pIC50: < 6.00
Homo sapiens [29]
  inhibition: inactive
CYP2C19
  inhibition at 1 µM: 38%
[30]
  inhibition: inactive
Mus musculus
  Activity: Toxic
[31]
  inhibition: inactive
[32]
  remaining at 5 min: < 50%
[33]
  inhibition: inactive
Histamine H2 receptor [34]
  pIC50: 6.00
[35]
  inhibition: inactive
Histamine H2 receptor [36]
  inhibition: 50%
[37]
  inhibition: inactive
Homo sapiens [38]
  inhibition: inactive
